# Laboratory results published in patent publication US8044068B2, “Aminopyrrolidine compound” (Taisho Pharmaceutical Co., Ltd, priority 2006, dated 2011).
# Target: T1, human MC4 receptor (Homo sapiens, UniProt P32245)
# T1 construct: purchased Biolinks K.K; host or cells: HEK-293
# Assay: MC4 receptor binding experiment ([125I]Nle4-D-Phe7-α-MSH displacement)
# Details: human MC4 receptor expressing HEK-293 cell membrane; [125I]Nle4-D-Phe7-α-MSH 0.2 nM, 25° C.
# Procedure: The MC4 receptor binding experiment was performed according to the method described in Pharmacology & Toxicology, 79, 161-165, 1996. The human MC4 receptor expressing-cell membrane obtained by expressing the human MC4 receptor in a HEK-293 cell was purchased from Biolinks K.K. The cell membrane was homogenized with 50 mM tris hydrochloride buffer (pH 7.4) containing 2 mM ethylenediaminetetraacetic acid, 10 mM calcium chloride, and 100 μM phenylmethylsulfonyl fluoride. The homogenate was centrifuged at 48,000×g at 4° C. for 20 min. The sediment obtained by centrifugation was rehomogenized with the same buffer, and the homogenate was centrifuged at 48,000×g at 4° C. for 20 min. This procedure was repeated twice. The sediment was suspended in 50 mM tris hydrochloride buffer (pH 7.4) containing 2 mM ethylenediaminetetraacetic acid, 10 mM calcium chloride, 100 μM phenylmethylsulfonyl fluoride, and 0.1% bovine serum albumin at a protein concentration of 100 μg/ml, and the suspension was used as a crude membrane preparation for the binding experiment. The crude membrane preparation (0.25 ml, 25 μg protein) was reacted with [^125I]Nle^4-D-Phe^7-α-MSH (final concentration, 0.2 nM) at 25° C. for 120 min. After completion of the reaction, the reaction solution was filtered by suction, using a cell harvester for the receptor binding experiment, onto a GF/C glass fiber filter paper immersed in 50 mM tris hydrochloride buffer (pH 7.4) containing 0.5% bovine serum for 2 h. Radioactivity on the filter paper was measured using a γ counter. The quantity of binding in the presence of 1 μM Nle^4-D-Phe^7-α-MSH was obtained as nonspecific binding, and specific binding was obtained by deducting the nonspecific binding from the total quantity, binding in the absence of 1 μM Nle^4-D-Phe^7-α-MSH. The test drug was dissolved in 100% DMSO solution and added to the membrane preparation at the same time as [^125I]Nle^4-D-Phe^7-α-MSH. The IC50 value was obtained from the inhibition curve in the range of 10^−10 to 10^−5 M. The binding test results of representative compounds are shown in Table 21 as examples.
# T1 sequence (P32245 whole entry): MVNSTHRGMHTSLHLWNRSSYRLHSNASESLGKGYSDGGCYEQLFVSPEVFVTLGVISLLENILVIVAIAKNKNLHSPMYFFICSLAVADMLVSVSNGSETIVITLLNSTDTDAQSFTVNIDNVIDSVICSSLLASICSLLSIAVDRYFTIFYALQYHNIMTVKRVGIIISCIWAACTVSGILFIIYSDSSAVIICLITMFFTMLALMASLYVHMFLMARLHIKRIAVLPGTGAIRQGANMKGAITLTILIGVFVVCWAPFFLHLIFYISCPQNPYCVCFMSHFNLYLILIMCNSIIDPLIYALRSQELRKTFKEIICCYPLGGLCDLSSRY
row,SMILES,IC50
1,"Cc1cc(N2CCOCC2)cc(N[C@@H]2CN(C(=O)Cc3ccc(OC(F)(F)F)cc3)C[C@H]2O)n1 [Compound 14-001, 1-((3R,4R)-3-hydroxy-4-(6-methyl-4-morpholin-4-ylpyridin-2-ylamino)pyrrolidin-1-yl)-2-(4-trifluoromethoxyphenyl)ethanone]",0.016 µM
2,O=C(Cc1ccc(OC(F)(F)F)cc1)N1C[C@@H](O)[C@H](Nc2nc(N3CCOCC3)c3cc(Cl)ccc3n2)C1 [Compound 11-009],0.0061 µM
3,COc1ccc2nc(N[C@@H]3CN(C(=O)Cc4ccc(OC(F)(F)F)cc4)C[C@H]3OC)cc(OC)c2c1 [Compound 12-018],0.0034 µM
4,O=C(Cc1ccccc1-c1ccccc1)N1CC[C@H](Nc2nc(N3CCC(n4ccnc4)CC3)c3ccccc3n2)C1 [Compound 1-095],0.022 µM
5,COc1ccc2nc(N[C@H]3CCN(C(=O)Cc4ccc(OC(F)(F)F)cc4)C3)nc(N(C)C)c2c1 [Compound 1-005],0.0028 µM
6,COc1ccc2nc(N[C@@H]3CN(C(=O)Cc4ccc(OC(F)(F)F)cc4)C[C@H]3O)cc(N3CCOCC3)c2c1 [Compound 12-001],0.0029 µM
7,O=C(Cc1ccccc1-c1ccccc1)N1CC[C@H](Nc2nc(N3CCc4ccccc4C3)c3ccc(F)cc3n2)C1 [Compound 1-101],0.068 µM
8,O=C1CN(c2nc(N[C@H]3CCN(C(=O)C4(c5ccc(Cl)cc5)CC4)C3)nc3cc(F)ccc23)CCN1 [Compound 15-003],0.026 µM
9,O=C(Cc1ccc(OC(F)(F)F)cc1)N1C[C@@H](O)[C@H](Nc2nc(N3CCOCC3)c3cscc3n2)C1 [Compound 8-006],0.01 µM
10,Cc1cc(N2CCCOCC2)nc(N[C@H]2CCN(C(=O)Cc3ccc(OC(F)(F)F)cc3)C2)n1 [Compound 4-058],0.028 µM
11,"CS(=O)(=O)C1CCN(c2cc(N[C@H]3CCN(C(=O)Cc4ccc(OC(F)(F)F)cc4)C3)nc3ccsc23)CC1 [Compound 7-002, (S)-1-(3-(7-(4-methylsulfonylpiperidin-1-yl)thieno[3,2-b]pyridin-5-ylamino)pyrrolidin-1-yl)-2-(4-trifluoromethoxyphenyl)ethanone]",0.094 µM
12,Cc1cc(N2CCCCC2)nc(N[C@@H]2CN(C(=O)Cc3ccc(OC(F)(F)F)cc3)C[C@H]2O)n1 [Compound 13-005],0.021 µM
13,Cc1cc(N[C@H]2CCN(C(=O)Cc3ccc(OC(F)(F)F)cc3)C2)nc2ccc(F)cc12 [Compound 3-019],0.078 µM
